The target of one assay is T1, hCRHR1 (Homo sapiens, UniProt P34998).
T1 sequence (P34998 24-415): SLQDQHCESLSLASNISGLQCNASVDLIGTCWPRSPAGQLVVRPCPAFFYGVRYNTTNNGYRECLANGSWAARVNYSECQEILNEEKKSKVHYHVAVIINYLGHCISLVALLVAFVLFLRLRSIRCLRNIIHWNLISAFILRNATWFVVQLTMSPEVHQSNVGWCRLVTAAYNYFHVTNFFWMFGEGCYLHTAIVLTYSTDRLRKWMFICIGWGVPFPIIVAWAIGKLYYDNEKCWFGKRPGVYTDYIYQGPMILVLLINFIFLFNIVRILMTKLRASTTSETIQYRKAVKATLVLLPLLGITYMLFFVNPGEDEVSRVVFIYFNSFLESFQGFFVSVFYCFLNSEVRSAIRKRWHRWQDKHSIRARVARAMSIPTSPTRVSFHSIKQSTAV
Kind of assay: HTRF cAMP assay, determination of hCRHR1 potency (peptide libraries 5 conc., purified peptides 11 conc.). The format is cell-based. Put shortly:
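Cellular cAMP was read by time-resolved FRET between d2-labelled cAMP and cryptate anti-cAMP antibody. The cells were freshly thawed suspension CHO-K1 cells stably expressing human CRHR1.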
On the technique in general: In TR-FRET formats the signal depends on donor and acceptor labels being close together.

The target in the next assay is T2, hCRHR2 (Homo sapiens, UniProt Q13324).
T2 sequence (Q13324 1-411): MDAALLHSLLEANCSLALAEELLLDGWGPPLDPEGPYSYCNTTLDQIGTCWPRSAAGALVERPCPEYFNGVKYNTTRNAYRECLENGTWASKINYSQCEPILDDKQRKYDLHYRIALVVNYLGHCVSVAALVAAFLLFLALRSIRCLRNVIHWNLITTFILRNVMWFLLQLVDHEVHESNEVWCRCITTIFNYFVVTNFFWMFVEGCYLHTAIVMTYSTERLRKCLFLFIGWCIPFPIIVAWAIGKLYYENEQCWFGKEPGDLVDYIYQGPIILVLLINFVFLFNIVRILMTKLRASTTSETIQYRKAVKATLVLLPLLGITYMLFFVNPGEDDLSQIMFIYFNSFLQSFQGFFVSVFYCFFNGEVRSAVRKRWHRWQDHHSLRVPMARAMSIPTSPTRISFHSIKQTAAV
Kind of assay: HTRF cAMP assay, determination of hCRHR2 potency (peptide libraries 5 conc., purified peptides 11 conc.). The format is cell-based. In a few lines:
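EC50 derived by variable-slope sigmoid regression of FRET-based cAMP data; cellular cAMP displaced d2-labelled tracer from cryptate anti-cAMP antibody. Stable human CRHR2 CHO-K1 suspension cells, revived from frozen stocks just before the run.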

The mark [1] stands for this setting: Table 3, matched molecular pairs X^38 L vs Nle, peptide library of Example 4, read-out: hCRHR1 pEC50 (converted).
Where [2] appears, read: Table 3, matched molecular pairs X^38 L vs Nle, peptide library of Example 4, read-out: hCRHR2 pEC50 (converted).
The mark [3] stands for this setting: Table 4, library peptides having X^38 = Nle, read-out: hCRHR1 pEC50 (converted).
Where [4] appears, read: Table 4, library peptides having X^38 = Nle, read-out: hCRHR2 pEC50 (converted).

Where two headings read alike, the source gives them in different places. Starred links: 1 amine or outer side, 2 acyl side, 3 side chain; linkers in the order of their positions; H or OH if unused. Non-standard residues stand in square brackets, D forms with d. Residues, ends and D or L forms follow the SMILES beside them. Groups on a side chain read outwards from the residue. *: point of attachment. C20 diacid = O=C(O)CCCCCCCCCCCCCCCCCCC(=O)*; γGlu = O=C(O)[C@H](CCC(=O)[*:2])N[*:1]; NMeI = CC[C@H](C)[C@H](NC)C(=O)O; Nle = CCCC[C@H](N)C(=O)O; Ac5c = NC1(C(=O)O)CCCC1; AEEA = NCCOCCOCC(=O)O; Aib = CC(C)(N)C(=O)O

Regarding `CC[C@H](C)[C@H](N)C(=O)N[C@H](C(=O)N[C@@H](CC(C)C)C(=O)N[C@@H](CO)C(=O)N[C@@H](CC(C)C)C(=O)N[C@@H](CC(=O)O)C(=O)N[C@H](C(=O)N1CCC[C@H]1C(=O)N[C@H](C(=O)NCC(=O)N[C@@H](CC(C)C)C(=O)N[C@@H](CC(C)C)C(=O)N[C@@H](CCC(N)=O)C(=O)N[C@H](C(=O)N[C@@H](CC(C)C)C(=O)N[C@@H](CC(C)C)C(=O)N[C@@H](CCC(=O)O)C(=O)N[C@@H](CCC(N)=O)C(=O)N[C@@H](C)C(=O)N[C@@H](CCCNC(=N)N)C(=O)N[C@@H](C)C(=O)N[C@@H](CCCNC(=N)N)C(=O)N[C@@H](CCC(N)=O)C(=O)N[C@@H](C)C(=O)N[C@@H](CCCNC(=N)N)C(=O)N[C@@H](CCC(=O)O)C(=O)N[C@@H](CCC(N)=O)C(=O)N[C@@H](C)C(=O)N[C@@H](CCCCNC(=O)COCCOCCNC(=O)COCCOCCNC(=O)CC[C@H](NC(=O)CC[C@H](NC(=O)CCCCCCCCCCCCCCCCCCC(=O)O)C(=O)O)C(=O)O)C(=O)N[C@H](C(=O)N[C@@H](CC(N)=O)C(=O)N[C@@H](C)C(=O)N[C@@H](CCC(=O)O)C(=O)N[C@H](C(=O)N[C@@H](CC(C)C)C(=O)N[C@@H](C)C(=O)N[C@@H](CCC(=O)O)C(=O)N[C@H](C(N)=O)[C@@H](C)CC)[C@@H](C)CC)[C@@H](C)O)[C@@H](C)CC)[C@@H](C)CC)C(C)C)C(C)C` [SEQ ID NO: 29] (H-IVLSLDVPIGLLQILLEQARARQAREQAK([AEEA-AEEA-γGlu-γGlu-C20 diacid])TNAEILAEI-NH2), the results for the EC50 at hCRHR1 (setting [1]) and at hCRHR2 (setting [2]) were 39800 nM and 0.251 nM, respectively.
For the compound `CCCC[C@H](NC(=O)[C@@H](NC(=O)[C@H](CCC(=O)O)NC(=O)[C@H](C)NC(=O)[C@H](CC(N)=O)NC(=O)C(C)(C)NC(=O)[C@H](CCCCNC(=O)COCCOCCNC(=O)COCCOCCNC(=O)CC[C@H](NC(=O)CC[C@H](NC(=O)CCCCCCCCCCCCCCCCCCC(=O)O)C(=O)O)C(=O)O)NC(=O)[C@H](C)NC(=O)[C@H](CCC(N)=O)NC(=O)[C@H](CCC(=O)O)NC(=O)[C@H](CCCNC(=N)N)NC(=O)[C@H](C)NC(=O)[C@H](C)NC(=O)[C@H](CCCNC(=N)N)NC(=O)[C@H](C)NC(=O)[C@H](CCCNC(=N)N)NC(=O)[C@H](C)NC(=O)[C@H](CCC(N)=O)NC(=O)[C@H](Cc1ccccc1)NC(=O)[C@H](CC(C)C)NC(=O)[C@H](CC(C)C)NC(=O)[C@@H](NC(=O)[C@H](CCC(N)=O)NC(=O)[C@H](CC(C)C)NC(=O)[C@H](CC(C)C)NC(=O)CNC(=O)[C@@H](NC(=O)[C@@H]1CCCN1C(=O)[C@@H](NC(=O)[C@H](CC(=O)O)NC(=O)[C@H](CC(C)C)NC(=O)[C@H](CO)NC(=O)[C@H](CC(C)C)NC(=O)[C@@H](NC(=O)[C@@H](NC)[C@@H](C)CC)C(C)C)C(C)C)[C@@H](C)CC)[C@@H](C)CC)[C@@H](C)CC)C(=O)N[C@@H](C)C(=O)N[C@@H](CCC(=O)O)C(=O)N[C@H](C(N)=O)C(C)C` [compound 128] (H-[NMeI]VLSLDVPIGLLQILLFQARARAAREQAK([AEEA-AEEA-γGlu-γGlu-C20 diacid])[Aib]NAEI[Nle]AEV-NH2), the EC50 on hCRHR1 (setting [3]) was 100000 nM; on hCRHR2 (setting [4]) it was 0.00501 nM.
Turning to `CCCC[C@H](NC(=O)[C@@H](NC(=O)[C@H](CCC(=O)O)NC(=O)[C@H](C)NC(=O)[C@H](CC(N)=O)NC(=O)[C@@H](NC(=O)[C@H](CCCCNC(=O)COCCOCCNC(=O)COCCOCCNC(=O)CC[C@H](NC(=O)CC[C@H](NC(=O)CCCCCCCCCCCCCCCCCCC(=O)O)C(=O)O)C(=O)O)NC(=O)[C@H](C)NC(=O)[C@H](CCC(N)=O)NC(=O)[C@H](CCC(=O)O)NC(=O)[C@H](CCCNC(=N)N)NC(=O)[C@H](CC(C)C)NC(=O)[C@H](C)NC(=O)[C@H](CCCNC(=N)N)NC(=O)[C@H](C)NC(=O)[C@H](CCCNC(=N)N)NC(=O)[C@H](C)NC(=O)[C@H](CCC(N)=O)NC(=O)[C@H](CCC(=O)O)NC(=O)[C@H](CC(C)C)NC(=O)[C@H](CC(C)C)NC(=O)[C@@H](NC(=O)[C@H](CCC(N)=O)NC(=O)[C@H](CC(C)C)NC(=O)[C@H](CC(C)C)NC(=O)CNC(=O)[C@@H](NC(=O)[C@@H]1CCCN1C(=O)[C@@H](NC(=O)[C@H](CC(=O)O)NC(=O)[C@H](CC(C)C)NC(=O)[C@H](CO)NC(=O)[C@H](CC(C)C)NC(=O)[C@@H](NC(=O)[C@@H](N)[C@@H](C)CC)C(C)C)C(C)C)[C@@H](C)CC)[C@@H](C)CC)[C@@H](C)O)[C@@H](C)CC)C(=O)N[C@@H](C)C(=O)N[C@@H](CCC(=O)O)C(=O)N[C@H](C(N)=O)C(C)C` [SEQ ID NO: 40] (H-IVLSLDVPIGLLQILLEQARARALREQAK([AEEA-AEEA-γGlu-γGlu-C20 diacid])TNAEI[Nle]AEV-NH2), the EC50 at hCRHR1 (setting [1]) was 25.1 nM; at hCRHR2 (setting [2]) it was 0.398 nM.
For the compound `CCCC[C@H](NC(=O)[C@@H](NC(=O)[C@H](CCC(=O)O)NC(=O)[C@H](C)NC(=O)[C@H](CC(N)=O)NC(=O)[C@@H](NC(=O)[C@H](CCCCNC(=O)COCCOCCNC(=O)COCCOCCNC(=O)CC[C@H](NC(=O)CC[C@H](NC(=O)CCCCCCCCCCCCCCCCCCC(=O)O)C(=O)O)C(=O)O)NC(=O)[C@H](C)NC(=O)[C@H](CCC(N)=O)NC(=O)[C@H](CCC(=O)O)NC(=O)[C@H](CCCNC(=N)N)NC(=O)[C@H](C)NC(=O)[C@H](CCC(N)=O)NC(=O)[C@H](CCCNC(=N)N)NC(=O)[C@H](C)NC(=O)[C@H](CCCNC(=N)N)NC(=O)[C@H](C)NC(=O)[C@H](CCC(N)=O)NC(=O)[C@H](CCC(=O)O)NC(=O)[C@H](CC(C)C)NC(=O)[C@H](CC(C)C)NC(=O)[C@@H](NC(=O)[C@H](CCC(N)=O)NC(=O)[C@H](CC(C)C)NC(=O)[C@H](CC(C)C)NC(=O)CNC(=O)[C@@H](NC(=O)[C@@H]1CCCN1C(=O)C1(NC(=O)[C@H](CC(=O)O)NC(=O)[C@H](CC(C)C)NC(=O)[C@H](CO)NC(=O)[C@H](CC(C)C)NC(=O)[C@@H](NC(=O)[C@@H](N)[C@@H](C)CC)C(C)C)CCCC1)[C@@H](C)CC)[C@@H](C)CC)[C@@H](C)O)[C@@H](C)CC)C(=O)N[C@@H](C)C(=O)N[C@@H](CCC(=O)O)C(=O)N[C@H](C(N)=O)C(C)C` [compound 79] (H-IVLSLD[Ac5c]PIGLLQILLEQARARQAREQAK([AEEA-AEEA-γGlu-γGlu-C20 diacid])TNAEI[Nle]AEV-NH2), the EC50 on hCRHR1 (library peptides, matched molecular pairs L vs Nle in position X^38, read-out: Potency hCRHR1 pEC50 (converted)) is 2 nM; on hCRHR2 (library peptides, matched molecular pairs L vs Nle in position X^38, read-out: Potency hCRHR2 pEC50 (converted)), 0.251 nM.
With `CCCC[C@H](NC(=O)[C@@H](NC(=O)[C@H](CCC(=O)O)NC(=O)[C@H](C)NC(=O)[C@H](CC(N)=O)NC(=O)C(C)(C)NC(=O)[C@H](CCCCNC(=O)COCCOCCNC(=O)COCCOCCNC(=O)CC[C@H](NC(=O)CC[C@H](NC(=O)CCCCCCCCCCCCCCCCCCC(=O)O)C(=O)O)C(=O)O)NC(=O)[C@H](C)NC(=O)[C@H](CCC(N)=O)NC(=O)[C@H](CCC(=O)O)NC(=O)[C@H](CCCNC(=N)N)NC(=O)[C@H](C)NC(=O)[C@H](C)NC(=O)[C@H](CCCNC(=N)N)NC(=O)[C@H](C)NC(=O)[C@H](CCCNC(=N)N)NC(=O)[C@H](C)NC(=O)[C@H](CCC(N)=O)NC(=O)[C@H](CC(C)C)NC(=O)[C@H](CC(C)C)NC(=O)[C@H](CC(C)C)NC(=O)[C@@H](NC(=O)[C@H](CCC(N)=O)NC(=O)[C@H](CC(C)C)NC(=O)[C@H](CC(C)C)NC(=O)CNC(=O)[C@@H](NC(=O)[C@@H]1CCCN1C(=O)[C@@H](NC(=O)[C@H](CC(=O)O)NC(=O)[C@H](CC(C)C)NC(=O)[C@H](CO)NC(=O)[C@H](CC(C)C)NC(=O)[C@@H](NC(=O)[C@@H](NC)[C@@H](C)CC)C(C)C)C(C)C)[C@@H](C)CC)[C@@H](C)CC)[C@@H](C)CC)C(=O)N[C@@H](C)C(=O)N[C@@H](CCC(=O)O)C(=O)N[C@H](C(N)=O)C(C)C` [compound 235] (H-[NMeI]VLSLDVPIGLLQILLLQARARAAREQAK([AEEA-AEEA-γGlu-γGlu-C20 diacid])[Aib]NAEI[Nle]AEV-NH2), the figures for the EC50 on hCRHR1 (setting [3]) and at hCRHR2 (setting [4]) were 158000 nM and 0.126 nM, respectively.

Values taken from patent publication EP4810052A2, “HCRHR2 SELECTIVE POLYPEPTIDES” (Gubra A/S, priority 2023, dated 2026).
